Experiments:
[1] = target: human recombinant PLK4 (Homo sapiens (Human), UniProt O00444); assay: PLK4 Biochemical Assay (ADP-Glo); settings: 0.5 nM PLK4, 8.0 µM ATP, 4.7 µM MBP, 6 hours at RT
In short: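 Luminescent ADP-Glo detection quantified ADP production, with ATP depletion for 40 min and detection for 30 min at room temperature. Compound and PLK4 (1.0 nM stock addition) were preincubated 15 min in HEPES pH 7.5 buffer containing MgCl2, EGTA, DTT, Brij-35 and BSA. IC50 values were obtained by four-parameter nonlinear regression.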

[2] = target: human recombinant Aurora A (Homo sapiens (Human), UniProt O14965); assay: Aurora A Kinase Biochemical Assay (ADP-Glo); settings: ratio of Aurora A IC50 to PLK4 IC50 (selectivity)
[3] = target: human recombinant Aurora B (Homo sapiens (Human), UniProt Q96GD4); assay: Aurora B Kinase Biochemical Assay (ADP-Glo); settings: ratio of Aurora B IC50 to PLK4 IC50 (selectivity)
In short: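 IC50 derived by four-parameter nonlinear fit of ADP-Glo luminescence (ADP produced). Compound was preincubated 15 min at RT with 20 nM recombinant human Aurora B, in 50 mM HEPES pH 7.5, 10 mM MgCl2, 1 mM EGTA, 1 mM DTT, 0.01% Brij-35/BSA.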

human recombinant Aurora B, sequence (Q96GD4 whole entry): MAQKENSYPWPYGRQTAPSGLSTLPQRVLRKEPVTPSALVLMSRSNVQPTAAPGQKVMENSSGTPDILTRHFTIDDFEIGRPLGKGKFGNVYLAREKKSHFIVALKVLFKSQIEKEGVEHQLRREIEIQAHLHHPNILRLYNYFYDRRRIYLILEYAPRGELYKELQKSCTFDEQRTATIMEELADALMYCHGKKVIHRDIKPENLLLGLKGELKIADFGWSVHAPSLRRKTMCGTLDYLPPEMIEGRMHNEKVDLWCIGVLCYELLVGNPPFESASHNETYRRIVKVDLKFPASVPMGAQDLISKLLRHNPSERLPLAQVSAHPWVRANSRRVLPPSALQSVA
human recombinant PLK4, sequence (O00444 whole entry): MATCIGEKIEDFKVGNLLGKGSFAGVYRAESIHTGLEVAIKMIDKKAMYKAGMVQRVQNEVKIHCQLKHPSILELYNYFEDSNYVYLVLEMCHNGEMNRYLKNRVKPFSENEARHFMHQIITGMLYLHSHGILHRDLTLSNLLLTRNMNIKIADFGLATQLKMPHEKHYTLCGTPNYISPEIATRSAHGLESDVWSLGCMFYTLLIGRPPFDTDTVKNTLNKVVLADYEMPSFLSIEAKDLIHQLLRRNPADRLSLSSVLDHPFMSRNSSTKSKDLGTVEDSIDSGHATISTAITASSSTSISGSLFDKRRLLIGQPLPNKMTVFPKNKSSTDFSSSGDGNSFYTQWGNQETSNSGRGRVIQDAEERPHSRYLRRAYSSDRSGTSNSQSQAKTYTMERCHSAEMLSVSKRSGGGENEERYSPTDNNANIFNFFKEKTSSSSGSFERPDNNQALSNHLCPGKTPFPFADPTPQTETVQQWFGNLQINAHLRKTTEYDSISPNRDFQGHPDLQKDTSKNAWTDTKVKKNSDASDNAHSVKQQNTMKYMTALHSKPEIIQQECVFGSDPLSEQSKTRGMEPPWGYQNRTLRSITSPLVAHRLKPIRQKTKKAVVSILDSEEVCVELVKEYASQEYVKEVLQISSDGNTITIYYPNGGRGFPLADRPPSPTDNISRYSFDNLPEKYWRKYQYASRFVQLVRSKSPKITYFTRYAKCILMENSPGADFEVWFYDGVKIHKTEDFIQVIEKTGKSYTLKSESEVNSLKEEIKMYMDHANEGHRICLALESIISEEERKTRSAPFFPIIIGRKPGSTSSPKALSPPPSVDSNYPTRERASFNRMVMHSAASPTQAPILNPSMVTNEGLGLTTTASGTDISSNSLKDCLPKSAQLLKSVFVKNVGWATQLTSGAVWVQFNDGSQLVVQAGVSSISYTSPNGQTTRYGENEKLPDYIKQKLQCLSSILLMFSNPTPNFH
human recombinant Aurora A, sequence (O14965 whole entry): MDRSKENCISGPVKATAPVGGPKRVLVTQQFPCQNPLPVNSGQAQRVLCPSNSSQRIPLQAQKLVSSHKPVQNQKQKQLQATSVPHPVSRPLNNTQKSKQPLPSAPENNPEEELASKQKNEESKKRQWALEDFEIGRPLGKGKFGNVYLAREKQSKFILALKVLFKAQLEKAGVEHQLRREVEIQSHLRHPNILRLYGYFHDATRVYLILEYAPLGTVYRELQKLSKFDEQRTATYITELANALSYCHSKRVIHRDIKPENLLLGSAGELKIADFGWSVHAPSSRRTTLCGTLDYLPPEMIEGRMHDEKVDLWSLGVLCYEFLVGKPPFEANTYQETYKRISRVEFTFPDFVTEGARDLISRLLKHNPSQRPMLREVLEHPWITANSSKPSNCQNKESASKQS

| Structure (SMILES) | IC50 [1] [nM] | [Aurora A IC50 (nM)]/[PLK4 IC50 (nM)] [2] | [Aurora B IC50 (nM)]/[PLK4 IC50 (nM)] [3] |
| --- | --- | --- | --- |
| COc1ccc2c(c1)[C@]1(C[C@H]1c1ccc3c(Nc4ncc(C(=O)N5CC(OC)C5)cc4OC)n[nH]c3c1)C(=O)N2 [Example 235, (1R,2S)-5′-methoxy-2-(3-{[3-methoxy-5-(3-methoxyazetidine-1-carbonyl)pyridm-2-yl]amino}-1H-indazol-6-yl)spiro[cyclopropane-1,3′-indol]-2′(1′H)-one] | 2.17 | 2053.4808 | 260.3503 |
| COc1ccc2c(c1)[C@]1(C[C@H]1c1ccc3c(Nc4cnc(C(=O)N(C)C)cc4OC)n[nH]c3c1)C(=O)N2 [Example 253, 4-methoxy-5-({6-[(1R,2S)-5′-methoxy-2′-oxo-1′,2′-dihydrospiro[cyclopropane-1,3′-indol]-2-yl]-1H-indazol-3-yl}amino)-N,N-dimethylpyridine-2-carboxamide] | 5.98 | 709.6288 | 88.7161 |
| COc1ccc2c(c1)[C@]1(C[C@H]1c1ccc3c(Nc4ncc(CCO)nc4OC)n[nH]c3c1)C(=O)N2 [Example 55, (lR,2S)-2-(3-{[5-(2-hydroxyethyl)-3-methoxypyrazin-2-yl]amino}-1H-indazol-6-yl)-5′-methozyspiro[cyclopropano-1,3′-indol]-2′(1′H)-one] | 1.25 | 3251.804 | 17.9 |
| COc1ccc2c(c1)[C@]1(C[C@H]1c1ccc3c(Nc4ncnc(N5CCS(=O)(=O)CC5)c4Cl)n[nH]c3c1)C(=O)N2 [Example 53] | 1.25 | 4028.777 | 251.7986 |
| CCOc1cc(=O)n(C)nc1Nc1n[nH]c2cc([C@@H]3C[C@@]34C(=O)Nc3ccc(OC)cc34)ccc12 [Example 277, (1R,2S)-2-{3-[(4-ethoxy-1-methyl-6-oxo-1,6-dihydropyridazin-3-yl)amino]-1H-indazol-6-yl}-5′-methoxyspiro[cyclopropane-1,3′-indol]-2′(1′H)-one] | 2.2 | 1120.5641 | 1049.1355 |
| COc1ccc2c(c1)[C@]1(C[C@H]1c1ccc3c(Nc4nc(C5COC5)ncc4OC(F)F)n[nH]c3c1)C(=O)N2 [Example 141, (1R,2S)-2-(3-{[5-(difluoromethoxy)-2-(oxetan-3-yl)pyrimidin-4-yl]amino}-1H-indazol-6-yl)-5′-methoxyspiro[cyclopropane-1,3′-indol]-2′(1′H)-one] | 13.1 | 327.4181 | 891.0891 |
| COc1ccc2c(c1)[C@]1(C[C@H]1c1ccc3c(Nc4nccc5c4OC[C@@H]5CO)n[nH]c3c1)C(=O)N2 [Example 33, (1R,2S)-2-(3-{[(3S)-3-(hydroxymethyl)-2,3-dihydrofuro[2,3-c]pyridin-7-yl]amino}-1H-indazol-6-yl)-5′-methoxyspiro[cyclopropane-1,3′-indol]-2′(1′H)-one] | 5.91 | 355.9465 | 8.474 |
| COc1ccc2c(c1)[C@]1(C[C@H]1c1ccc3c(Nc4c(OC)cnn4C)n[nH]c3c1)C(=O)N2 [Example 75, (1R,2S)-5′-methoxy-2-{3-[(4-methoxy-1-methyl-1H-pyrazol-5-yl)amino]-1H-indazol-6-yl}spiro[cyclopropane-1,3′-indol]-2′(1′H)-one] | 157 | 173.4097 | 23.28 |
| CCOc1cc(S(=O)(=O)NC)cnc1Nc1n[nH]c2cc([C@@H]3C[C@@]34C(=O)Nc3ccc(OC)cc34)ccc12 [Example 275, 5-ethoxy-6-({6-[(1R,2S)-5′-methoxy-2′-oxo-1′,2′-dihydrospiro[cyclopropane-1,3′-indol]-2-yl]-1H-indazol-3-yl}amino)-N-methylpyridine-3-sulfonamide] | 0.59 | 2162.7118 | 230 |
| COc1cnc(C)nc1Nc1n[nH]c2cc([C@@H]3C[C@@]34C(=O)N(C)c3ccccc34)ccc12 [Example 122, (1R,2S)-2-{3-[(5-methoxy-2-methylpyrimidin-4-yl)amino]-1H-indezol-6-yl}-1′-methylspiro[cyclopropane-1,3′-indol]-2′(1′H)-one] | 73.1 | 11.1709 | 11.87 |
| COc1cnc(C)nc1Nc1n[nH]c2cc([C@@H]3C[C@@]34C(=O)Nc3cccc(F)c34)ccc12 [Example 129, (1R,2S)-4′-fluoro-2-{3-[(5-methoxy-2-methylpyrimidin-4-yl)amino]-1H-indazol-6-yl}spiro[cyclopropane-1,3′-indol]-2′(1′H)-one] | 34.5 | 18.1054 | 17.1349 |
| COc1ccc2c(c1)[C@]1(C[C@H]1c1ccc3c(Nc4cc5oc(C)nc5cc4Cl)n[nH]c3c1)C(=O)N2 [Example 252, (1R,2S)-2-{3-[(5-chloro-2-methyl-1,3-benzoxazol-6-yl)amino]-1H-indazol-6-yl}-5′-methoxyspiro[cyclopropane-1,3′-indol]-2′(1′H)-one] | 9.28 | 518.4227 | 365.8694 |
| COc1cnc(C)nc1Nc1n[nH]c2cc([C@@H]3C[C@@]34C(=O)Nc3cc(F)ccc34)ccc12 [Example 131, (1R,2S)-6′-fluoro-2-{3-[(5-methoxy-2-methylpyrimidin-4-yl)amino]-1H-indazol-6-yl}spiro[cyclopropane-1,3′-indol]-2′(1′H)-one] | 53.8 | 105.7084 | 40.8516 |
| COc1ccc2c(c1)[C@]1(C[C@H]1c1ccc3c(Nc4ncncc4OC)n[nH]c3c1)C(=O)N2 [Example 4, (1R,2S)-5′-Methoxy-2-{3-[(5-methoxypyrimidin-4-yl)amino]-1H-indazol-6-yl}spiro[cyclopropane-1,3′-indol]-2′(1′H)-one] | 3.96 | 465.4867 | 11.45 |
| COc1ccc2c(c1)[C@]1(C[C@H]1c1ccc3c(Nc4cc(F)c(C(=O)N(C)C)cc4OC)n[nH]c3c1)C(=O)N2 [Example 206, 2-fluoro-5-methoxy-4-({6-[(1R,2S)-5′-methoxy-2′-oxo-1’,2′-dihydrospiro[cyclopropane-1,3′-indol]-2-yl]-1H-indazol-3-yl}amino)-N,N-dimethylbenzamide] | 0.806 | 618.8586 | 80.2233 |
| COc1ccc2c(c1)[C@]1(C[C@H]1c1ccc3c(Nc4nc(C)ncc4SC)n[nH]c3c1)C(=O)N2 [Example 162, (1R,2S)-5′-methoxy-2-(3-{[2-methyl-5-(methylsulfanyl)pyrimidin-4-yl]amino}-1H-indazol-6-yl)spiro[cyclopropane-1,3′-indol]-2′(1′H)-one] | 8.39 | 648.6776 | 105.2895 |
| COc1ccc2c(c1)[C@]1(C[C@H]1c1ccc3c(Nc4nc(C5CNC5)cnc4OC)n[nH]c3c1)C(=O)N2 [Example 110, (1R,2S)-2-(3-{[6-(azetidin-3-yl)-3-methoxypyrazin-2-yl]amino}-1H-indazol-6-yl)-5′-methoxyspiro[cyclopropane-1,3′-indol]-2′(1′H)-one] | 3.91 | 679.6315 | 232.1904 |
| COc1ccc2c(c1)[C@]1(C[C@H]1c1ccc3c(Nc4nc(C(C)(C)O)ccc4OC)n[nH]c3c1)C(=O)N2 [Example 278, (1R,2S)-2-(3-{[6-(2-hydroxypropan-2-yl)-3-methoxypyridin-2-yl]amino}-1H-indazol-6-yl)-5′-methoxy-1′H-spiro[cyclopropane-1,3′-indol]-2′-one] | 0.804 | 1269.9004 | 423.6318 |
| CCn1nc(C2CC2)cc1Nc1n[nH]c2cc([C@@H]3C[C@@]34C(=O)Nc3ccc(OC)cc34)ccc12 [Example 92, (1R,2S)-2-{3-[(3-cyclopropyl-1-ethyl-1H-pyrazol-5-yl)amino]-1H-indazol-6-yl}-5′-methoxyspiro[cyclopropane-1,3′-indol]-2′(1′H)-one] | 8.84 | 132.8355 | 76.36 |
| COc1ccc2c(c1)[C@]1(C[C@H]1c1ccc3c(Nc4cc(N5CCOCC5)nc(C(C)C)n4)n[nH]c3c1)C(=O)N2 [Example 102, (1R,2S)-5′-methoxy-2-(3-{[6-(morpholin-4-yl)-2-(propan-2-yl)pyrimidin-4-yl]amino}-1H-indazol-6-yl)spiro[cyclopropane-l,3′-indol]-2′(1′H)-one] | 6.16 | 114.7355 | 74.7 |
| COc1ccc2c(c1)[C@]1(C[C@H]1c1ccc3c(Nc4ncnc(N5C6CCC5COC6)c4OC)n[nH]c3c1)C(=O)N2 [Example 37, (1R,2S)-2-(3-((6-(3-oxa-8-azabicydo[3.2.1]octan-8-yl)-5-methoxypyrimidin-4-yl)amino)-1H-indazol-6-yl)-5′-methoxyspiro[cydopropane-1,3′-indolin]-2′-one] | 12.5 | 1799.358 | 49.51 |

Source: patent publication US20230365537A1, “POLO LIKE KINASE 4 INHIBITORS” (ORIC Pharmaceuticals, Inc., priority 2021, published 2023)
